Source: a flash point compilation (Sun et al. 2020)

SMILES	flash point
C#CCC1=C(C)C(OC(=O)[C@H]2[C@H](C=C(C)C)C2(C)C)CC1=O (stereo partly drawn)	139.00 °C
O=C([O-])CN(CCO)CCN(CC(=O)[O-])CC(=O)[O-].[Na+].[Na+].[Na+]	100.00 °C
O=c1oc2ccccc2c(O)c1C(CC(O)c1ccc(-c2ccc(Br)cc2)cc1)c1ccccc1 (stereo not drawn)	218.00 °C
C#CCN1CC(=O)N(COC(=O)C2C(C=C(C)C)C2(C)C)C1=O (stereo not drawn)	110.00 °C
CC(C)(C)C(=O)C(Oc1ccc(Cl)cc1)n1cncn1 (stereo not drawn)	72.00 °C
CC(C)C1=CC2=CC[C@@H]3[C@](C)(CCC[C@@]3(C)C(=O)O)[C@H]2CC1	187.00 °C
CC(C)CCCCCCCOP(=S)([S-])OCCCCCCCC(C)C.CC(C)CCCCCCCOP(=S)([S-])OCCCCCCCC(C)C.[Zn+2]	280.00 °C
CC(C)CCCCCOP(=S)([S-])OCCCCCC(C)C.CC(C)CCCCCOP(=S)([S-])OCCCCCC(C)C.[Zn+2]	160.00 °C
CC(C)N(C(=O)SCC(Cl)=C(Cl)Cl)C(C)C	90.00 °C
CC(C)N(C(=O)SCC(Cl)=CCl)C(C)C	96.00 °C
CC1(C)C(C(=O)OC(C#N)c2cccc(Oc3ccccc3)c2)C1C(Br)C(Br)(Br)Br (stereo not drawn)	26.00 °C
COP(=S)(OC)Oc1ccc(SC)c(C)c1	170.00 °C
Cc1cc(C)cc(N)c1.Cc1ccc(C)c(N)c1.Cc1ccc(N)c(C)c1.Cc1ccc(N)cc1C.Cc1cccc(C)c1N.Cc1cccc(N)c1C	97.00 °C
COc1nc(C)nc(NC(=O)NS(=O)(=O)c2ccccc2CCC(F)(F)F)n1	100.00 °C
CCC(CC)C(=O)OCCOCCOCCOC(=O)C(CC)CC	196.00 °C
CC(C)CC(C)C(C)C.CCCC(C)CC(C)C.CCCCC(C)C(C)C (stereo not drawn)	24.00 °C
CCCCC(CC)CN1C(=O)C2C3C=CC(C3)C2C1=O (stereo not drawn)	177.00 °C
CCCCCCC(O)C/C=C\CCCCCCCC(=O)OCC(COC(=O)CCCCCCC/C=C\CC(O)CCCCCC)OC(=O)CCCCCCC/C=C\CC(O)CCCCCC (stereo not drawn)	229.00 °C
CCCN(CCCl)c1c([N+](=O)[O-])cc(C(F)(F)F)cc1[N+](=O)[O-]	30.00 °C
CCOC(=O)C1CC(=O)C(=C(O)C2CC2)C(=O)C1 (stereo not drawn)	133.00 °C
CCOP(=O)(OCC)SCCSCC.CCOP(=S)(OCC)OCCSCC	45.00 °C
CCOP(=S)(Oc1ccc([N+](=O)[O-])cc1)c1ccccc1 (stereo not drawn)	30.00 °C
CCOP(=S)(OCC)SCn1c(=O)oc2cc(Cl)ccc21	100.00 °C
CCOP(=S)(OCC)SCSCC	160.00 °C

SMILES	flash point
CCOP(=S)(OCC)SCSP(=S)(OCC)OCC	176.00 °C
C#CCOc1cccc(-c2cc(C(F)(F)F)nc(S(=O)CC)n2)c1 (stereo not drawn)	240.00 °C
CN(C)CCCC1(c2ccccc2)C(=O)N(N(C)Cc2ccccc2F)c2ccccc21 (stereo not drawn)	193.00 °C
COc1nn(CSP(=S)(OC)OC)c(=O)s1	100.00 °C
C[C@@H]1[C@@H](c2ccc(Cl)cc2)SC(=O)N1C(=O)NC1CCCCC1	100.00 °C
C[Si]1(C)O[Si](C)(C)O[Si](C)(C)O[Si](C)(C)O1	55.00 °C
C[Si]1(C)O[Si](C)(C)O[Si](C)(C)O[Si](C)(C)O[Si](C)(C)O[Si](C)(C)O1	91.00 °C
c1ccc(-c2ccccc2)cc1 [1,1'-biphenyl]	113.00 °C
CC1=Nc2ccc3ccccc3c2C1(C)C [1,1,2-trimethylbenzo[e]indole]	182.00 °C
CC(Cl)(Cl)[N+](=O)[O-] [1,1-dichloro-1-nitroethane]	76.00 °C
CC(C)OC(C)C(Cl)Cl (stereo not drawn) [1,1-dichloro-2-propan-2-yloxypropane]	85.00 °C
CC(Cl)Cl [1,1-dichloroethane]	-6.00 °C
C=C(Cl)Cl [1,1-dichloroethene]	-10.00 °C
CCOC(C)OCC [1,1-diethoxyethane]	-21.00 °C
CC(C)c1ccc(NC(=O)N(C)C)cc1 [1,1-dimethyl-3-(4-propan-2-ylphenyl)urea]	100.00 °C
CN(C)N [1,1-dimethylhydrazine]	-15.00 °C
Clc1c(Cl)c(Cl)c(Cl)c(Cl)c1Cl [1,2,3,4,5,6-hexachlorobenzene]	242.00 °C
O=[N+]([O-])c1c(Cl)c(Cl)c(Cl)c(Cl)c1Cl [1,2,3,4,5-pentachloro-6-nitrobenzene]	127.00 °C
c1ccc2c(c1)CCCC2 [1,2,3,4-tetrahydronaphthalene]	80.00 °C
Clc1ccc(-c2ccc(Cl)c(Cl)c2Cl)c(Cl)c1Cl [1,2,3-trichloro-4-(2,3,4-trichlorophenyl)benzene]	141.00 °C
ClC=C(Cl)CCl [1,2,3-trichloroprop-1-ene]	85.00 °C
ClCC(Cl)CCl [1,2,3-trichloropropane]	82.00 °C
CCc1cccc(CC)c1CC [1,2,3-triethylbenzene]	83.00 °C
Clc1cc(Cl)c(Cl)cc1Cl [1,2,4,5-tetrachlorobenzene]	155.00 °C

SMILES	flash point
CC(C)c1ccccc1C(C)C [1,2-di(propan-2-yl)benzene]	77.00 °C
O=[N+]([O-])c1cccc(Cl)c1Cl [1,2-dichloro-3-nitrobenzene]	124.00 °C
O=[N+]([O-])c1ccc(Cl)c(Cl)c1 [1,2-dichloro-4-nitrobenzene]	124.00 °C
Clc1ccccc1Cl [1,2-dichlorobenzene]	66.00 °C
ClCCCl [1,2-dichloroethane]	13.00 °C
CC(=O)OC(Cl)CCl (stereo not drawn) [1,2-dichloroethyl acetate]	153.00 °C
CC(Cl)CCl.ClC=CCCl (stereo not drawn) [1,2-dichloropropane;(E)-1,3-dichloroprop-1-ene]	17.00 °C
CC(Cl)CCl (stereo not drawn) [1,2-dichloropropane]	16.00 °C
CCOCCOCC [1,2-diethoxyethane]	35.00 °C
O=C=Nc1ccc2ccccc2c1N=C=O [1,2-diisocyanatonaphthalene]	192.00 °C
Cc1cccc([N+](=O)[O-])c1C [1,2-dimethyl-3-nitrobenzene]	107.00 °C
c1ccc(-c2ccccc2-c2ccccc2)cc1 [1,2-diphenylbenzene]	163.00 °C
Cc1ccccc1C [1,2-xylene]	17.00 °C
CC12CCC(CC1)C(C)(C)O2 [1,3,3-trimethyl-2-oxabicyclo[2.2.2]octane]	49.00 °C
ClC1=C(Cl)C2(Cl)C3C(Cl)C(Cl)CC3C1(Cl)C2(Cl)Cl (stereo not drawn) [1,3,4,7,8,9,10,10-octachlorotricyclo[5.2.1.02,6]dec-8-ene]	107.00 °C
C1N2CN3CN1CN(C2)C3 [1,3,5,7-tetrazatricyclo[3.3.1.13,7]decane]	250.00 °C
C1OCOCO1 [1,3,5-trioxane]	45.00 °C
Cc1c(Cl)cccc1Cl [1,3-dichloro-2-methylbenzene]	82.00 °C
CC1(C)C(=O)N(Cl)C(=O)N1Cl [1,3-dichloro-5,5-dimethylimidazolidine-2,4-dione]	174.00 °C
Clc1cccc(-c2cc(Cl)cc(Cl)c2)c1 [1,3-dichloro-5-(3-chlorophenyl)benzene]	141.00 °C
Clc1cccc(Cl)c1 [1,3-dichlorobenzene]	63.00 °C
OC(CCl)CCl [1,3-dichloropropan-2-ol]	74.00 °C
Cc1c(N=C=O)cccc1N=C=O [1,3-diisocyanato-2-methylbenzene]	132.00 °C
CNC(=O)NC [1,3-dimethylurea]	154.00 °C

SMILES	flash point
C1COCO1 [1,3-dioxolane]	2.00 °C
Cc1cccc(C)c1 [1,3-xylene]	29.00 °C
Clc1ccc(Cl)cc1 [1,4-dichlorobenzene]	66.00 °C
CCc1ccc(CC)cc1 [1,4-diethylbenzene]	56.00 °C
COc1ccc(OC)cc1 [1,4-dimethoxybenzene]	88.00 °C
O=C=Nc1cccc2c(N=C=O)cccc12 [1,5-diisocyanatonaphthalene]	155.00 °C
ClCCCCCCCl [1,6-dichlorohexane]	74.00 °C
OOC1(OOC2(O)CCCCC2)CCCCC1 [1-(1-hydroperoxycyclohexyl)peroxycyclohexan-1-ol]	157.00 °C
CCCCOCCOCCCC [1-(2-butoxyethoxy)butane]	85.00 °C
CC1CCC(C(C)(C)OO)CC1 (stereo not drawn) [1-(2-hydroperoxypropan-2-yl)-4-methylcyclohexane]	53.00 °C
CC(O)COCC(C)O (stereo not drawn) [1-(2-hydroxypropoxy)propan-2-ol]	138.00 °C
CCC(O)OCCCOC (stereo not drawn) [1-(3-methoxypropoxy)propan-1-ol]	74.00 °C
Cc1ccccc1CBr [1-(bromomethyl)-2-methylbenzene]	82.00 °C
Cc1cccc(CBr)c1 [1-(bromomethyl)-3-methylbenzene]	82.00 °C
C=CCSSCCC [1-(prop-2-enyldisulfanyl)propane]	56.00 °C
CCCSSCCC [1-(propyldisulfanyl)propane]	66.00 °C
CC(CCN(C)C)N(C)C (stereo not drawn) [1-N,1-N,3-N,3-N-tetramethylbutane-1,3-diamine]	46.00 °C
CCC(C)Nc1ccc(NC(C)CC)cc1 (stereo not drawn) [1-N,4-N-di(butan-2-yl)benzene-1,4-diamine]	141.00 °C
c1ccc(Nc2ccc(Nc3ccccc3)cc2)cc1 [1-N,4-N-diphenylbenzene-1,4-diamine]	204.00 °C
CC(C)Nc1ccc(Nc2ccccc2)cc1 [1-N-phenyl-4-N-propan-2-ylbenzene-1,4-diamine]	151.00 °C
c1ccc2occc2c1 [1-benzofuran]	56.00 °C
